Source: patent US10501453B2, “Benzothiazole or benzoxazole compounds as SUMO activators” (Icahn School of Medicine at Mount Sinai, priority 2012, dated 2019)

How the values were obtained:
SERCA2a = SERCA2a SUMOylation assay in HEK-293 cells (immunoprecipitation/immunoblotting); type: cell-based
Source text: The following antibodies were used for immunoblotting and immunoprecipitation (IP): polyclonal anti-SERCA2a (21th century Biochem Inc.), monoclonal anti-GAPDH (Sigma-Aldrich, catalog no. G8795), monoclonal anti-SUMO 1 (Cell Signaling Technology Inc., catalog no. 4930), anti-mouse horseradish peroxidase (HRP) (Pierce Biotechnology Inc., catalog no. 32430), and anti-rabbit HRP (Pierce Biotechnology Inc., catalog no. 32460). YFP-tagged SUMO1, pcDNA3.0-SERCA2a, and HA-tagged Ubc9 plasmids were used for the transfection. The plasmid DNA was amplified in the Escherichia coli strain DH5a and extracted by using a commercial purification kit (Qiagen, catalog no. 12263). Purified plasmid was resuspended in sterile TE buffer (10 mM Tris-HCl and 1 mM EDTA, pH 7.6). Only the preparation highest purity (A260/A280>1.8) was used for transfection. 1 μg of each plasmid was used for transfection. HEK-293 cells (American Type Culture Collection, catalog no. CRL-1873) were grown at 37° C. and under a 5% CO2 humidified atmosphere in Dulbecco's modified Eagle's medium (DMEM, Cellgro, catalog no. 10-0 13-CM) containing 10% fetal bovine serum (SAFC Bioscience, catalog no. 12107) and 100 i.u of penicillin/ml and 100 μg of streptomycin/ml. HEK-293 cells were seeded at a density of 3-5×10^5 cells per 60 mm culture dish in DMEM. The cells were transiently transfected using Lipofectamine 2000 (Invitrogen, catalog no. 11668) with indicated expression plasmids. After 24 hours, the cells were treated with either small molecules or dimethyl sulfoxide (DMSO, Sigma-Aldrich, catalog no. D2650).
Each compound was added at 10 μM. DMSO was used as a control. After 24 hours at 37° C., SERCA2a SUMOylation and functional analysis were determined.
Equal amounts of protein from either small molecule treated or DMSO treated cells or immunoprecipitates were resolved by 7.5% SDS-PAGE and transferred to nitrocellulose membranes (Bio-Rad, catalog no. 162-0112). The membranes were blocked for 1 hour at room temperature with 5% non-fat milk (Cell Signaling Technology Inc., catalog no. 9999) in TBST (10 mM Tris-HCl, 150 mM NaCl, and 0.05% tween-20, pH 8.0). The blots were incubated with specific primary antibodies at 4° C. for overnight. The blots were then washed five times for 10 minutes each with TBST and incubated for 1 hour with HRP-conjugated secondary antibodies in TBST with 5% non-fat milk. After five times TBST washes, the protein bands were visualized with enhanced chemiluminescence (Pierce Biotechnology Inc., catalog no. 32132) and exposed to x-ray film (Denville Scientific Inc., catalog no. E3012). GAPDH expression provided an internal control.
Post-transfection (48 hours), the HEK-293 cells were rinsed twice with phosphate-buffered saline (PBS, Cellgro, catalog no. 21-040-CM) and lysed in 1% Nonidet P-40 lysis buffer (Boston Bioproducts, catalog no. BP-119) with 10 mM N-ethylmaleimide (NEM, Sigma-Aldrich, catalog no. N3876) and […] inhibitor cocktail (Complete Mini Tablet, Roche Applied Science, catalog no. 11836153001). 2 mg of protein were mixed with the anti-SERCA2a antibodies for overnight at 4° C. in lysis buffer. Pre-washed protein A-Separose beads (Pierce Biotechnology Inc., catalog no. 20333) was added to each sample and incubated 1 hour at 4° C. with gentle rocking. Immunocomplexes were washed with lysis buffer three times and precipitated by centrifugation at 12000×g for 10 seconds. The immunocomplexes were resuspended in SDS sample buffer and subjected to immunoblotting. Controls for the immunoprecipitations were performed using an anti-rabbit IgG equal to that of the primary precipitating antibody. Ten percent of whole cell lysates used in the immunoprecipitation was loaded for subsequent immunoblotting.
The ability of the Example compound to SUMOylate SERCA2a was examined using an in vitro system in HEK 293 cells where both SERCA2a and SUMO 1 are expressed. […]

TAC mice = assay: Hemodynamics in mouse model of heart failure (TAC); type: in vivo; conditions: for ESPVR slope: baseline 3.1; for Tau(1/2): baseline 7.7; for Pmax: baseline 111.1; for HR: baseline 422.1; for +dP/dt Max: baseline 4738.7; for index of contractility ESPVR, dose dependence: infusion of increasing doses
Procedure: Hemodynamics were measured to evaluate the acute effect of Example 1 infusion on the cardiac function of the mouse model of HF. In the first set of experiments, mice were exposed to pressure overload by thoracic aortic constriction (TAC) or sham operation and received either EXAMPLE 1 or vehicle. At two months post-TAC animals developed HF. […] In addition, the positive chronotropic effect of dobutamine was no longer observed in TAC mice (FIG. 9). Following cannulation of the carotid artery and external jugular vein, infusion of EXAMPLE 1 or vehicle was performed as described in Method section. Pressure and conductance catheters were introduced in the LV through the carotid artery. Pressure and volume measurements were made simultaneously and pressure volume curves were constructed as the vehicle or EXAMPLE 1 were infused.
Hemodynamic data were obtained in 1 mg of EXAMPLE 1-treated failing hearts at 30 min and 60 min after compound treatment. […] The improvement occurred within 30 minutes after treatment and maintained for 60 minutes after treatment. […] The effects of EXAMPLE 1 on various hemodynamic parameters are shown in FIG. 9b and Table S1. dP/dt max increased with increasing concentration of EXAMPLE 1 while Tau a parameter of relaxation decreased an indication of enhanced relaxation.
A model of heart failure was created by transaortic constriction in the mouse for 6-8 weeks. Following cannulation of the carotid artery and external jugular vein, infusion of Example 1 or vehicle was performed as shown in the protocol in FIG. 16. Pressure and conductance catheters were introduced in the left ventricle through the carotid artery. Pressure and volume measurements were made simultaneously and pressure volume curves were constructed as the vehicle or Example 1 was infused.

NCI-60 human tumor cell = NCI-60 human tumor cell screen; type: cell-based; conditions: NCI-60 set
Procedure: The NCI-60 human tumor cell screen used by the National Cancer Institute's Developmental Therapeutics Program was performed on Example 1. The NCI-60 set includes leukemia, lymphomas, and carcinomas of ovarian, renal, breast, prostate, colon, lung and CNS origin.

[1] = failing hearts, 1 mg, 30 min and 60 min after treatment

COc1ccc(-c2nnc(Nc3nc4c(OC)cccc4s3)o2)cc1 [Example 1, N-(4-methoxybenzo[d]thiazol-2-yl)-5-(4-methoxyphenyl)-1,3,4-oxadiazol-2-amine]
SERCA2a SUMOylation in HEK 293 cells (SERCA2a): increases SUMOylation of SERCA2a in a dose dependent manner
Tau (parameter of relaxation) with increasing concentration (TAC mice; TAC mice): decreased
dP/dt max with increasing concentration (TAC mice; TAC mice): increased
ESPVR slope (TAC mice; TAC mice, 0.1 mg/kg): 9.0 mmHg/A
Tau(1/2) (TAC mice; TAC mice, 0.1 mg/kg): 7.5 ms
Pmax (TAC mice; TAC mice, 0.1 mg/kg): 115.1 mmHg
HR (TAC mice; TAC mice, 0.1 mg/kg): 417.1 bpm
+dP/dt Max (TAC mice; TAC mice, 0.1 mg/kg): 4803.3 mmHg/sec
ESPVR slope (TAC mice; TAC mice, 1.0 mg/kg): 11.2 mmHg/A
Tau(1/2) (TAC mice; TAC mice, 1.0 mg/kg): 6.4 ms
Pmax (TAC mice; TAC mice, 1.0 mg/kg): 123.6 mmHg
HR (TAC mice; TAC mice, 1.0 mg/kg): 422.3 bpm
+dP/dt Max (TAC mice; TAC mice, 1.0 mg/kg): 5448.8 mmHg/sec
ESPVR slope (TAC mice; TAC mice, 10 mg/kg): 20.3 mmHg/A
Tau(1/2) (TAC mice; TAC mice, 10 mg/kg): 6.2 ± 0.4 ms
Pmax (TAC mice; TAC mice, 10 mg/kg): 124.5 mmHg
HR (TAC mice; TAC mice, 10 mg/kg): 455.1 bpm
+dP/dt Max (TAC mice; TAC mice, 10 mg/kg): 6229.4 mmHg/sec
index of contractility ESPVR, dose dependence (TAC mice; TAC mice): increase in the index of contractility ESPVR in a dose dependent fashion
index of contractility ESPVR, dose dependence (TAC mice; TAC mice, listed as EXAMPLE 1): increase in the index of contractility, ESPVR in a dose dependent manner
time the improvement was maintained after treatment (TAC mice; failing hearts, 1 mg): 60 min
time to improvement after treatment (TAC mice; failing hearts, 1 mg): ≤ 30 min
end systolic pressure-volume relationship (ESPVR) in the LV versus baseline (TAC mice; [1]): significantly steeper
rate of LV pressure rise (dP/dt max) versus baseline (TAC mice; [1]): increased cardiac contractility
cancer cell growth and proliferation (NCI-60 human tumor cell): did not induce cancer cell growth and proliferation
